# Experimental data as given in ChEMBL document CHEMBL1153432 (J Med Chem, 2009).
# Where a SMILES comes first, the peptide text is derived from it. [ ]: non-standard residue; d: D form. The star is where a group is joined. Heptanoyl = CCCCCCC(=O)*; Dap = NC[C@H](N)C(=O)O; X1 = O=C(CCCCCF)*
# Experiments:
# [1] = molecular target: T1, Growth hormone secretagogue receptor type 1 (Homo sapiens, UniProt Q92847); test: Displacement of [35S]MK-0677 from human growth hormone secretagogue receptor
# [2] = molecular target: T1, Growth hormone secretagogue receptor type 1; test: Displacement of [125I]ghrelin from human growth hormone secretagogue receptor expressed in CHO-K1 cells at >2 uM; assay type: cell-based
# [3] = molecular target: T1, Growth hormone secretagogue receptor type 1; test: Displacement of [125I]ghrelin from human growth hormone secretagogue receptor expressed in CHO-K1 cells; assay type: cell-based
# T1 sequence (Q92847 whole entry): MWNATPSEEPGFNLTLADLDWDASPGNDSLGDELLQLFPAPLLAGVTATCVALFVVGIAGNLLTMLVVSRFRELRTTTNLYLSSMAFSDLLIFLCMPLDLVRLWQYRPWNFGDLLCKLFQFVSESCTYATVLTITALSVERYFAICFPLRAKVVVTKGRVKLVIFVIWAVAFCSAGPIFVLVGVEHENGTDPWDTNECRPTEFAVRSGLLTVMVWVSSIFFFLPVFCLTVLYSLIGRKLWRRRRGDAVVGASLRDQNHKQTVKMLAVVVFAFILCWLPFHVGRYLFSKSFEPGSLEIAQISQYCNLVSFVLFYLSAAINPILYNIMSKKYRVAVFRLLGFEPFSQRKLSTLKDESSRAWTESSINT
IC50 [1] [µM],Activity [2] [%],IC50 [3] [µM],SMILES
55,,,CCCCCCC(=O)OC[C@H](NC(=O)[C@H](CO)NC(=O)CN)C(=O)N[C@@H](Cc1ccccc1)C(=O)N[C@@H](CC(C)C)C(N)=O (H-GSS(Heptanoyl)FL-NH2)
9.6,,,CCCCCCC(=O)OC[C@H](NC(=O)[C@H](CO)NC(=O)CN)C(=O)N[C@@H](Cc1ccccc1)C(=O)N[C@@H](CC(C)C)C(=O)N[C@@H](CO)C(=O)N1CCC[C@H]1C(=O)N[C@@H](CCC(=O)O)C(=O)N[C@@H](Cc1cnc[nH]1)C(=O)N[C@@H](CCC(N)=O)C(=O)N[C@@H](CCCN=C(N)N)C(=O)N[C@H](C(=O)N[C@@H](CCC(N)=O)C(=O)N[C@@H](CCC(N)=O)C(=O)O)C(C)C
889,,,CCCCCCC(=O)OC[C@H](NC(=O)[C@H](CO)NC(=O)CN)C(=O)N[C@@H](Cc1ccccc1)C(N)=O (H-GSS(Heptanoyl)F-NH2)
,20,> 2,CC(C)C[C@H](NC(=O)[C@H](Cc1ccccc1)NC(=O)[C@H](CNC(=O)CCCCCF)NC(=O)[C@H](CO)NC(=O)CN)C(N)=O (H-GS[Dap](X1)FL-NH2)
